Results on 25 molecules are retold here after patent US5478939A, “(R,R) and (S,S) 2,5-diazabicyclo [2,2,1]heptane derivatives” (priority 1994, dated 1995).

The structures appear in SMILES notation. Where a name gives a salt, the structure may show the parent alone.

For orientation: Ki means the equilibrium dissociation constant of an inhibitor or competing ligand from its target.

In assay [1] the target is muscarinic cholinergic receptor. Briefly: [3H] Quinuclidinyl Benzilate (QNB) Binding Assay, cerebral cortex. The settings on record: 3H-QNB 0.25 nM, rat cerebral cortex, 25° C., 120 minutes, pH 7.4; read-out: Ki, ^3 H-QNB (ctx).
The target in assay [2] is muscarinic cholinergic receptor (high affinity agonist conformation). Nature of the assay: [3H]-cis-Methyldioxolane (3H-CD) Binding Assay (High Affinity), cerebral cortex. The settings on record: 3H-CD 1.0 nM, rat cerebral cortex, 25° C., 120 minutes, pH 7.4; read-out: Ki, ^3 H-CD (ctx).

On to `Cc1nccnc1N1C[C@@H]2C[C@H]1CN2C` [Example 35, (S,S)-2-Methyl-5-(3-methylpyrizin-2-yl)-2,5-diazabicyclo[2.2.1]heptane], for which the Ki in assay [1] came out at 6.3 µM; in assay [2], 1.7 µM.
`Cc1nsc(N2C[C@@H]3C[C@H]2CN3)n1` [Example 13, (S,S)-2-(3-Methyl-1.2,4-thiadiazol-5-yl)-2,5-diazabicyclo[2.2.1]heptane]: the inhibitory constant (Ki) in assay [2] was 13 µM.
For `CN1C[C@@H]2C[C@H]1CN2c1cnccn1` [Example 19, (S,S)-2-Methyl-5-(2-pyrazinyl)-2,5-diazabicyclo[2.2.1]heptane], the Ki was 5.5 µM in assay [1] and 0.4 µM in assay [2].
As for `CC(C)(C)OC(=O)N1C[C@H]2C[C@@H]1CN2c1cnccn1` [Example 3, (R,R)-2-(tert-Butyloxycarbonyl)-5-(2-pyrazinyl)-2,5-diazabicyclo[2.2.1]heptane], in assay [2], the Ki was more than 1000 µM.
On to `CN1C[C@@H]2C[C@H]1CN2c1ccc([N+](=O)[O-])s1` [Example 29, (S,S)-2-Methyl-5-(5-nitro-2-thienyl)-2,5-diazabicyclo[2.2.1]heptane], for which the results for the Ki in assay [1] and in assay [2] were 13.2 µM and 6.8 µM, respectively.
As for `c1nsc(N2C[C@@H]3C[C@H]2CN3)n1` [Example 15, (S,S)-2-(1,2,4-Thiadiazol-5-yl)-2,5-diazabicyclo[2.2.1]heptane], the Ki in assay [1] was more than 1000 µM; in assay [2] it was 29.5 µM.
Taken in the same sequence, the figures for `CN1C[C@@H]2C[C@H]1CN2c1cncc(Cl)n1` [Example 24, (S,S)-2-(6-Chloropyrazin-2-yl)-5-methyl-2.5-diazabicyclo[2.2.1]heptane] were 4.5 µM and 2 µM.
For `CN1C[C@@H]2C[C@H]1CN2c1nccnc1Cl` [Example 23, (S,S)-2-(3-Chloropyrazin-2-yl)-5-methyl-2,5-diazabicyclo[2.2.1]heptane], in that order: 2.3 µM and 0.9 µM.
Taken in the same sequence, the figures for `c1cnc(N2C[C@H]3C[C@@H]2CN3)cn1` [Example 11, (R,R)-2-(2-Pyrazinyl)-2,5-diazabicyclo[2.2.1]heptane hydrochloride] were 3.1 µM and 0.1 µM.
For `Cc1noc(N2C[C@@H]3C[C@H]2CN3)n1` [Example 17, (S,S)-2-(3-Methyl-1,2,4-oxadiazol-5-yl)-2,5-diazabicyclo[2.2.1]heptane], the figures for the Ki in assay [1] and in assay [2] were more than 1000 µM and 5.4 µM, respectively.
Consider `CC(C)(C)OC(=O)N1C[C@@H]2C[C@H]1CN2c1ncns1` [Example 8, (S,S)-2-(tert-Butyloxycarbonyl)-5-(1,2,4-thiadiazol-5-yl)-2,5-diazabicyclo[2.2.1]heptane], for which the Ki in assay [2] is 97 µM.
Consider `CN1C[C@@H]2C[C@H]1CN2c1ccccc1[N+](=O)[O-]` [Example 30, (S,S)-2-Methyl-5-(2-nitrophenyl)-2,5-diazabicyclo[2.2.1]heptane], for which the Ki amounted to 1.6 µM in assay [1] and 1.1 µM in assay [2].
Turning to `Cc1cnc(C)c(N2C[C@@H]3C[C@H]2CN3C)n1` [Example 22, (S,S)-2-(3,6-Dimethylpyrazin-2-yl)-5-methyl-2,5-diazabicyclo[2,2.1]heptane], the Ki in assay [1] was found to be 1.2 µM; in assay [2], 0.7 µM.
Taken in the same sequence, the figures for `COc1cncc(N2C[C@@H]3C[C@H]2CN3C)n1` [Example 32, (S,S)-2-Methyl-5-(6-methoxypyrazin-2-yl)-2,5-diazabicyclo[2.2.1]heptane] were 0.4 µM and 0.3 µM.
In the case of `Cc1noc(N2C[C@@H]3C[C@H]2CN3C(=O)OC(C)(C)C)n1` [Example 10], the Ki in assay [2] was determined as 43.2 µM.
In the case of `CC(C)(C)OC(=O)N1C[C@H]2C[C@@H]1CN2c1ncns1` [Example 7], in assay [2], the Ki is more than 1000 µM.
Take `Cc1nsc(N2C[C@H]3C[C@@H]2CN3C(=O)OC(C)(C)C)n1` [Example 5]: the results for the Ki in assay [1] and in assay [2] were more than 1000 µM and 59 µM, respectively.
For `c1cnc(N2C[C@@H]3C[C@H]2CN3)cn1` [Example 12, (S,S)-2-(2-Pyrazinyl)-2,5-diazabicyclo[2.2.1]heptane hydrochloride], in that order: 11.4 µM and 1.3 µM.
For `Cc1noc(N2C[C@H]3C[C@@H]2CN3)n1` [Example 18, (R,R)-2-(3-Methyl-1,2,4-oxadiazol-5-yl)-2,5-diazabicyclo[2.2.1]heptane], in that order: 47.2 µM and 0.4 µM.
For `Cc1noc(N2C[C@H]3C[C@@H]2CN3C(=O)OC(C)(C)C)n1` [Example 9, (R,R)-2-(tert-Butyloxycarbonyl)-5-(3-methyl-1,2,4-oxadiazol-5-yl)-2,5-diazabicyclo[2.2.1]heptane], the Ki in assay [2] came to 18.2 µM.
With `CN1C[C@H]2C[C@@H]1CN2c1cnccn1` [Example 36, (R,R)-2-Methyl-5-(2-pyrazinyl)-2,5-diazabicyclo[2.2.1]heptane], the Ki in assay [1] was more than 1000 µM; in assay [2], 6.4 µM.
Taken in the same sequence, the figures for `Cc1nsc(N2C[C@H]3C[C@@H]2CN3)n1` [Example 14, (R,R)-2-(3-Methyl-1,2,4-thiadiazol-5-yl)-2,5-diazabicyclo[2.2.1]heptane] were 24.7 µM and 0.9 µM.
Taken in the same sequence, the figures for `CN1C[C@@H]2C[C@H]1CN2c1sccc1[N+](=O)[O-]` [Example 28, (S,S)-2-Methyl-5-(3-nitro-2-thienyl)-2,5-diazabicyclo[2.2.1]heptane] were more than 1000 µM and 9.8 µM.
For `c1nsc(N2C[C@H]3C[C@@H]2CN3)n1` [Example 16, (R,R)-2-(1,2,4-Thiadiazol-5-yl) -2,5-diazabicyclo[2.2.1]heptane], in that order: more than 1000 µM and 0.3 µM.
With `Cc1nsc(N2C[C@@H]3C[C@H]2CN3C)n1` [Example 26, (S,S)-2-Methyl-5-(3-methyl-1,2,4-thiadiazol-5-yl)-2,5-diazabicyclo[2.2.1]heptane], the Ki in assay [1] was 0.5 µM; in assay [2] it was 0.2 µM.
